Columns and labels:
[1] = Inflammatory skin responses to locally administered ATP; type: in vivo, mouse
bone marrow-derived DC [2] = test: ATP-mediated cytolysis of bone marrow-derived DC (cell viability, 7-AAD staining); type: cell-based, mouse
From the text: (§1) FIGS. 6A, 6B, & 6C. P2Y receptor desensitization in CD39^−/− DC. […] (FIG. 6C), CD39^−/− or CD39^+/+ DC were pre-treated with apyrase or buffer alone and then examined for ATP-mediated activation responses. Data shown are the means±s.d. (n=3) of cell viability (left), IL-6 production (middle), and LY uptake (right). Statistically, significant differences are indicated by asterisks (** P<0.01).
(§2) Measurement of ATP responsiveness.

bone marrow-derived DC [3] = test: ATP-induced IL-6 secretion by bone marrow-derived DC (ELISA); type: cell-based, mouse
From the text: as §1, §2

bone marrow-derived DC [4] = test: ATP-induced pore formation in bone marrow-derived DC (lucifer yellow uptake); type: cell-based, mouse; settings: 3 mM ATP, 15 min
From the text: as §1, §2

Pam 212 keratinocytes [5] = test: ATP and ADP release from Pam 212 keratinocytes after skin irritant chemicals (luciferin-luciferase, pyruvate kinase); type: cell-based, mouse; settings: for ATP and ADP levels in culture supernatants: Pam 212 keratinocytes, 10 min incubation; for ATP release from Pam 212 keratinocytes: in vitro treatment, ATP in culture supernatants
Experimental: (§3) FIGS. 3A, 3B, & 3C. […] (FIG. 3A), Pam 212 keratinocytes were treated with croton oil (CO), benzalkonium chloride (BAC), or ethyl phenylpropiolate (EPP) at the indicated concentrations or exposed to UVB irradiation at the indicated doses. […] (FIG. 3C), Pam 212 keratinocytes and XS52 LC were co-cultured at the indicated cell densities and treated for 10 min with PBS alone or with 0.0015% BAC. All data shown in this figure are representative sets of results (mean±SD, n=3) from three independent experiments. * p<0.05; ** p<0.01 (two-tailed Student's t-test).
As the amount of ATP is directly proportional to the light emitted, quantification of the emitted light provides a measure of the amount of ATP. […] Cellular ATP release is then measured by: obtaining cells growing in culture; replacing the culture medium with a buffer; adding the ATP releasing agent (chemical irritant or a modulator of an NTPDase-mediated immune response); obtaining a sample of the buffer surrounding the cells after allowing sufficient time for ATP release by the cell in response to the irritant or modulator of an NTPDase-mediated immune response; adding luciferin and luciferase to this buffer; and quantitating the light released using a luminometer. A negative control can comprise obtaining the same reading with no cells; and/or obtaining the same reading with no added ATP releasing agent. The data are then analyzed by comparing to the standard ATP curve. Generally the cells in such assays may be grown in a multi-well format.
Additionally, the release of ADP into culture media can be measured by the pyruvate kinase-mediated conversion to ATP. This enzymatic assay utilizes pyruvate kinase (PK) which catalyzes the following reaction: Phospho(enol)pyruvate+ADP→Pyruvate+ATP
(§4) ATP and ADP released by endothelial cells and platelets are known to act as pro-inflammatory mediators in the vascular system.

Pam 212 keratinocytes [6] = test: LDH release from Pam 212 keratinocytes (CytoTox 96 assay kit); type: cell-based, mouse
Experimental: as §3, §4

[7] = mouse, in vivo
From the text: (§5) FIGS. 4A, 4B, 4C, 4D, 4E, 4F, 4G, & 4H. Irritant contact hypersensitivity responses in CD39-deficient mice. CD39^−/− mice (circles), CD39^+/− mice (triangles) or CD39^+/+ mice (squares) received topical application of 1% croton oil (FIG. 4A), 10% BAC (FIG. 4B), or 30% EPP (FIG. 4C) on the right ear and vehicle alone on the left ear. […] Statistical significant differences compared to the CD39^+/+ mice or to the CD39^+/− mice are indicated by asterisks or sharps, respectively (*^/# p<0.05 and **^/## p<0.01; two-tailed Student's t test). FIG. 4D, Ear skin samples were harvested from CD39^+/+ or CD39^−/− mice 5 days after topical application of vehicle alone or 1% CO and processed to histological analyses after H&E staining (original magnification: ×250). FIG. 4E, CD39^−/− mice (n=6) or C57BL/6 wild-type mice (n=10) (FIG. 4F) received local injections of apyrase on the right ear (closed circles) or PBS alone on the left ear (open circles) before and after topical application of 1% CO on both ears. The data shown are the mean±SEM of the swelling responses (the ear thickness after CO application minus the baseline thickness before application) at the indicated time points. Statistical significant differences (one-tailed Student's t-test) are indicated by asterisks (*p<0.05 and **p<0.01). […]

IA+ epidermal cells = test: LC emigration: surface densities of IA+ epidermal cells after local injection of TNFα; type: in vivo, mouse; settings: CD39+/+ mice; local injection 100 ng/animal, 48 hr
From the text: FIGS. 5A, 5B, 5C, 5D, 5E, 5F, 5G, & 5H. Attenuated immune responses in CD39-deficient mice. […] The data shown are the means±s.e.m. (n=10) of the swelling responses. […] (FIG. 5C) Mice received local injection of TNFα and examined for surface densities of IA^+ epidermal cells (means±s.d., n=3). At 24 hr after topical application of FITC, the DLN were examined for the numbers of migratory LC (means±s.d., n=3) (FIG. 5D) localization of FITC^+ migratory LC after counter-staining of the B cell areas with PE-conjugated B220 mAb (FIG. 5E), and for the surface phenotype of FITC^+ migratory LC (FIG. 5F). Closed and open histograms represent the staining profiles with the indicated mAb and control IgG, respectively. Numbers in the parentheses indicate the mean fluorescence intensities (MFI). (FIG. 5G), Migratory LC isolated from OX-painted CD39^−/− mice (circles) or CD39^+/+ mice (squares) were co-cultured with OX-reactive, wild-type T-cells. The data shown are the means±s.d. (n=3) of interferon-γ (IFN-γ) concentrations in the culture supernatants (* P<0.05). (FIG. 5H), Bone marrow-derived DC generated from CD39^−/− mice (circles) or CD39^+/+ mice (squares) were pulsed with TNBS and injected into CD39^+/+ mice. […]
Measurement of DC function. […] Maturational states of migratory LC were assessed by the surface expression of CD86 and CD40 by the FITC^+ populations in DLN. […]

[8] = Local apyrase injection in croton oil-induced ear swelling; type: in vivo, mouse
From the text: as §5

endothelial cells = settings: soluble apyrase added in the medium; Imai et al., 2000; cited from earlier work
cytotoxic T-cells = settings: cited from earlier work

Nc1ncnc2c1ncn2[C@@H]1O[C@H](COP(=O)(O)OP(=O)(O)OP(=O)(O)O)[C@@H](O)[C@H]1O [ATP, adenosine triphosphate]
inflammatory skin responses in CD39−/− mice [1]: markedly elevated inflammatory skin responses
ATP concentration that killed DC significantly (bone marrow-derived DC [2]; CD39+/+ DC, 60 min incubation): 2.5 mM
ATP concentration up to which DC were resistant to cytolysis (bone marrow-derived DC [2]; CD39−/− DC, 60 min incubation): up to 10 mM
IL-6 secretion in response to ATP (bone marrow-derived DC [3]; CD39+/+ vs CD39−/− DC, 1 mM ATP, 16 hr): CD39^+/+ DC, but not CD39^−/− DC, secreted IL-6
ATP-induced pore formation (lucifer yellow uptake) in CD39−/− DC (bone marrow-derived DC [4]): intact nucleotide responsiveness

CCOC(=O)C#Cc1ccccc1 [ethyl phenylpropiolate]
ATP and ADP levels in culture supernatants (Pam 212 keratinocytes [5]): detected at comparable levels
ATP release from Pam 212 keratinocytes (Pam 212 keratinocytes [5]): triggered rapid ATP release in a time- and dose-dependent manner
release of lactate dehydrogenase (LDH) (Pam 212 keratinocytes [6]): caused rapid release of lactate dehydrogenase (LDH)
ear swelling responses in CD39−/− mice compared with CD39+/+ mice [7]: amplified significantly

TNFα
reduction in surface densities of IA+ epidermal cells (IA+ epidermal cells): about 50%

apyrase
effect on early phase ear swelling responses to CO in CD39−/− mice ([8]; 0.2U/ear s.c. into ear 10 min before and 1 hr after 1% CO painting): diminished the extent of early phase responses
effect on CO-induced skin inflammation in wild-type C57BL/6 mice ([8]; 0.2U/ear s.c. into ear before and 1 hr after 1% CO painting): further reduced the extent of CO-induced skin inflammation
effect of apyrase pre-treatment on susceptibility of CD39−/− DC to ATP-mediated cytolysis (bone marrow-derived DC [2]; apyrase 5 U/ml, 10 min before 2.5 mM ATP): restored their susceptibility to ATP-mediated cytolysis
effect of apyrase pre-treatment on capacity of CD39−/− DC to secrete IL-6 upon ATP stimulation (bone marrow-derived DC [3]; apyrase 5 U/ml, 10 min before 1 mM ATP): restored
inhibition of LPS-induced IL-1 secretion (endothelial cells): can be inhibited
effect on cytolytic capacity of cytotoxic T-cells (cytotoxic T-cells): inhibited partially

benzalkonium chloride
ATP and ADP levels in culture supernatants (Pam 212 keratinocytes [5]): detected at comparable levels
ATP release from Pam 212 keratinocytes (Pam 212 keratinocytes [5]): triggered rapid ATP release in a time- and dose-dependent manner
release of lactate dehydrogenase (LDH) (Pam 212 keratinocytes [6]): caused rapid release of lactate dehydrogenase (LDH)
ear swelling responses in CD39−/− mice compared with CD39+/+ mice [7]: amplified significantly

Reference: patent US7067254B2, “Diagnosis and treatment of inflammation and hyperactive immune conditions” (Board of Regents, The University of Texas System, priority 2001, dated 2006)
